Common to all, as to type: biochemical
Experiment [1] addresses T1, recombinant human MAO-B (monoamine oxidase-B) (Homo sapiens, UniProt P27338).
T1 construct: purchased Sigma-Aldrich
T1 sequence (P27338 1-520): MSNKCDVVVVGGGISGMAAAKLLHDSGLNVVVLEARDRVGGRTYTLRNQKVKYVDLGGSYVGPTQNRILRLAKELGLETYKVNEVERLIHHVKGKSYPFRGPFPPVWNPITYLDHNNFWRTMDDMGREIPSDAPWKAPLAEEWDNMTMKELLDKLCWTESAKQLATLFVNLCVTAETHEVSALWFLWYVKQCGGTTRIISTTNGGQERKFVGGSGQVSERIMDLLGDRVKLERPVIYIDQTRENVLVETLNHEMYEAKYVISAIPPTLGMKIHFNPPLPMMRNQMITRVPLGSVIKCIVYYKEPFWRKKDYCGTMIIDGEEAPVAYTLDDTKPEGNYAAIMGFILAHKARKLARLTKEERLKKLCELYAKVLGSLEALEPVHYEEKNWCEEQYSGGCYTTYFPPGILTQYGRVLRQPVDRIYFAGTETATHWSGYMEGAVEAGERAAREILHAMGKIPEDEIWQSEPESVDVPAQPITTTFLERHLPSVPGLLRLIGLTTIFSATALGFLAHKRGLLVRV
Nature of the experiment: Activity on recombinant human MAO-B, method similar to the VAP-1 assay. The note with it: substrate 1 mM benzylamine; read-out: Inhibitory Activity (IC50, nM) MAO-B. The method in brief: (§1)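 Enzyme in pH 7.4 phosphate buffer; 30 min, 37° C with compound (DMSO <1%); start with 200 uM Amplex Red + 1 U/mL HRP + tyramine 0.5 mM (MAO-A) or benzylamine 1 mM (MAO-B); kinetic read ex 544/em 590, 1-2 h; % rate decrease vs DMSO control → IC50, 4-parameter fit.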

The target in experiment [2] is T2, recombinant human DAO (diamine oxidase) (Homo sapiens, UniProt P19801).
T2 construct: purchased R&D systems
T2 sequence (P19801 20-751): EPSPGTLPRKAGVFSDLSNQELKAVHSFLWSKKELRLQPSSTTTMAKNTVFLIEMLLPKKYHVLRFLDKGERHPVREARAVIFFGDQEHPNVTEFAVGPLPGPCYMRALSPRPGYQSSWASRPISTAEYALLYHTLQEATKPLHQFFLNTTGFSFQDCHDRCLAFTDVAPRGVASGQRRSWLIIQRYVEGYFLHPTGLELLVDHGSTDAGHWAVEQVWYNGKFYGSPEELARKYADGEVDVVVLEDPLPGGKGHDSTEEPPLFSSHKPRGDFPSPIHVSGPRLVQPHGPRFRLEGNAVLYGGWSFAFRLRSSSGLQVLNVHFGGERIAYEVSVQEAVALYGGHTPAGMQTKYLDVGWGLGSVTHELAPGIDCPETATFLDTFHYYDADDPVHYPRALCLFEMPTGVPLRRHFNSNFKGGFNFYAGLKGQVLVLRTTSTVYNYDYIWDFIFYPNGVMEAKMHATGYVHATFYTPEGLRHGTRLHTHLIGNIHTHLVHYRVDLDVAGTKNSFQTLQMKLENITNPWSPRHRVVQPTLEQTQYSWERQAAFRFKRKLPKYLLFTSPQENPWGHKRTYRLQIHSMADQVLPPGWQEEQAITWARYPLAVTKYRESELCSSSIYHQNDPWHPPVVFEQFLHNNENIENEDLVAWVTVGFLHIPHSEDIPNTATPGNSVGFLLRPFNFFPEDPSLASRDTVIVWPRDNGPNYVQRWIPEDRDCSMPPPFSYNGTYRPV
Nature of the experiment: Activity on recombinant human DAO, method similar to the VAP-1 assay. The note with it: substrate 1 mM putrescine; read-out: Inhibitory Activity (IC50, nM) DAO. The method in brief: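 Inhibition of recombinant human diamine oxidase (DAO, R&D systems) was assessed by the same approach as the VAP-1 assay, using 1 mM putrescine as substrate. Hydrogen peroxide formed was detected through an HRP-coupled Amplex Red reaction yielding fluorescent resorufin, read at 544 nm excitation and 590 nm emission. IC50 values came from four-parameter logistic fitting in GraphPad Prism.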

Experiment [3] concerns the target T3, recombinant human MAO-A (monoamine oxidase-A) (Homo sapiens, UniProt P21397).
T3 construct: purchased Sigma-Aldrich
T3 sequence (P21397 1-527): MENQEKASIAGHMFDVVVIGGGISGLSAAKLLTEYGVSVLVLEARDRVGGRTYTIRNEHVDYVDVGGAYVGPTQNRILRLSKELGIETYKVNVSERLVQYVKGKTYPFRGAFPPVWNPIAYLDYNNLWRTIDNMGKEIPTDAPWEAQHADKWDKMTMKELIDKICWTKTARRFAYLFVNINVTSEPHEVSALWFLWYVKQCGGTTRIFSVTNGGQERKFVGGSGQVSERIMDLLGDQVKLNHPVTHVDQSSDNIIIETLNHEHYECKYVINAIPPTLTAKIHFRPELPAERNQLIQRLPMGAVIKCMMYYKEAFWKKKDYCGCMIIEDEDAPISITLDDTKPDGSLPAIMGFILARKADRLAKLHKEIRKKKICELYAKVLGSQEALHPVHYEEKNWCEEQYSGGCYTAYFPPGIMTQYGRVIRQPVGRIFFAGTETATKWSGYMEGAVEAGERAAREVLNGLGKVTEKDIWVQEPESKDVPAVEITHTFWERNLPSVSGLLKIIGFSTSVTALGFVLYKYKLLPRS
The experiment is described as follows: Activity on recombinant human MAO-A, method similar to the VAP-1 assay. The note with it: substrate 0.5 mM tyramine; read-out: Inhibitory Activity (IC50, nM) MAO-A. The method in brief: as §1

The target of experiment [4] is T4, recombinant human VAP-1 (Homo sapiens, UniProt Q16853).
T4 construct: purchased R&D systems
T4 sequence (Q16853 1-763): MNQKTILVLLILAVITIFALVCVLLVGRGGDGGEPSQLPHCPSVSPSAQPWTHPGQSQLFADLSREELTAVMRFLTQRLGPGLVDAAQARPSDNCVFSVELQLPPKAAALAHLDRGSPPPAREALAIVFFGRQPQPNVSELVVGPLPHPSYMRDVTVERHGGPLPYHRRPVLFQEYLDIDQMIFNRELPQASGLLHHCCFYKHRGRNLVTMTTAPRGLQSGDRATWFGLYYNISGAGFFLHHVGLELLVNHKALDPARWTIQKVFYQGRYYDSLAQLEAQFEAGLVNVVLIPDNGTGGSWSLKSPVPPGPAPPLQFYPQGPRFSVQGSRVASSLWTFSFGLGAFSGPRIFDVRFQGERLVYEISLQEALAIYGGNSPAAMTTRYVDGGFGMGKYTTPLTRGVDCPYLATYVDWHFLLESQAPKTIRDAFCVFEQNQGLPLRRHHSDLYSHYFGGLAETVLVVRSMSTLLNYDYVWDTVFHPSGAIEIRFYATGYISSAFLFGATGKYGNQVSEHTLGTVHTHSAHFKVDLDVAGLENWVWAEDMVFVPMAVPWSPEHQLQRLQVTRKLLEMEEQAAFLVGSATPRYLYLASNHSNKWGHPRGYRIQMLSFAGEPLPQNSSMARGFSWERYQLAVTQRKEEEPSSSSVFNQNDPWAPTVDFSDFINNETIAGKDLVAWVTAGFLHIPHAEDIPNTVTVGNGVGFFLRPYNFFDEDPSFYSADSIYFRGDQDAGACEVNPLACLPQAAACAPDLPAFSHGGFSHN
The experiment is described as follows: Activity on recombinant human VAP-1, HRP-coupled Amplex Red hydrogen peroxide assay. The note with it: substrate 1 mM benzylamine; compound incubated with enzyme at 37° C. for 30 minutes; pH 7.4; read-out: Inhibitory Activity (IC50, nM) human VAP-1. The method in brief:
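Enzyme in 50 mM sodium phosphate (pH 7.4) is exposed to test compound for 30 min at 37 °C. Benzylamine (1 mM) with HRP and Amplex Red then starts the reaction, and the fluorescence rate, relative to a DMSO-only control, gives IC50.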

The source of these data is patent US11780830B2, “Triazolone derivatives or salts thereof and pharmaceutical compositions comprising the same” (YUHAN CORPORATION, priority 2018, dated 2023).

Counter-ions that a name gives are not always drawn. Bounds are passed on as bounds.

Take `Cc1cc(-c2ccc(CCn3cnn(C/C(=C/F)CN)c3=O)s2)cc2c1NC(=O)CC2` [Example 218, 6-[5-(2-{1-[(2E)-2-(aminomethyl)-3-fluoroprop-2-en-1-yl]-5-oxo-1,5-dihydro-4H-1,2,4-triazol-4-yl}ethyl)thiophen-2-yl]-8-methyl-3,4-dihydroquinolin-2(1H)-one]: the IC50 in experiment [1] is 76000 nM; in experiment [2], 200 nM; in experiment [3], above 100000 nM; in experiment [4] it was 0.7 nM.
Turning to `NC/C(=C\F)Cn1ncn(Cc2ccc(-c3ccc(-c4noc(=O)[nH]4)cc3)s2)c1=O` [Example 144, 3-{4-[5-({1-[(2E)-2-(aminomethyl)-3-fluoroprop-2-en-1-yl]-5-oxo-1,5-dihydro-4H-1,2,4-triazol-4-yl}methyl)thiophen-2-yl]phenyl}-1,2,4-oxadiazol-5(4H)-one], the IC50 in experiment [1] is 13000 nM; in experiment [2] it was 7400 nM; in experiment [3] it was above 100000 nM; in experiment [4] it was 4.6 nM.
Regarding `NC/C(=C\F)Cn1ncn(Cc2ccc(-c3cc(F)c4c(c3)CCC(=O)N4)s2)c1=O` [Example 80, 6-[5-[[1-[(E)-2-(aminomethyl)-3-fluoro-allyl]-5-oxo-1,2,4-triazol-4-yl]methyl]-2-thienyl]-8-fluoro-3,4-dihydro-1H-quinolin-2-one], the IC50 was 6300 nM in experiment [1], 380 nM in experiment [2], above 100000 nM in experiment [3] and 0.2 nM in experiment [4].
The corresponding values for `NC/C(=C\F)Cn1ncn(Cc2ccc(/C=C/c3cccc(F)c3)s2)c1=O` [Example 118, 2-[(2E)-2-(aminomethyl)-3-fluoroprop-2-en-1-yl]-4-(5-[(E)-2-(3-fluorophenyl)ethenyl]thiophen-2-ylmethyl)-2,4-dihydro-3H-1,2,4-triazol-3-one hydrochloride] are 58 nM, 560 nM, 140000 nM and 1.1 nM.
`NC/C(=C\F)Cn1ncn(CCc2ccc(-c3ccc4c(c3)OCO4)s2)c1=O` [Example 215, 2-[(2E)-2-(aminomethyl)-3-fluoroprop-2-en-1-yl]-4-{2-[5-(1,3-benzodioxol-5-yl)thiophen-2-yl]ethyl}-2,4-dihydro-3H-1,2,4-triazol-3-one]: the IC50 in experiment [1] was 310 nM; in experiment [2] it was 380 nM; in experiment [3], above 100000 nM; in experiment [4] it was 1.3 nM.
`NC/C(=C\F)Cn1ncn(Cc2ccc(-c3ccc4c(c3)SCC(=O)N4)s2)c1=O` [Example 85, 7-[5-[[1-[(E)-2-(aminomethyl)-3-fluoro-allyl]-5-oxo-1,2,4-triazol-4-yl]methyl]-2-thienyl]-4H-1,4-benzothiazin-3-one hydrochloride]: the IC50 in experiment [1] is 1700 nM; in experiment [2] it was 320 nM; in experiment [3], above 100000 nM; in experiment [4], 0.3 nM.
The matching figures for `NC/C(=C\F)Cn1ncn(Cc2ccc(C#Cc3cnc4c(c3)NCCO4)s2)c1=O` [Example 135, 2-[(E)-2-(aminomethyl)-3-fluoro-allyl]-4-[[5-[2-(2,3-dihydro-1H-pyrido[2,3-b][1,4]oxazin-7-yl)ethynyl]-2-thienyl]methyl]-1,2,4-triazol-3-one]: 750 nM, 1100 nM, above 100000 nM and 1.1 nM.
Turning to `NC/C(=C\F)Cn1ncn(Cc2ccc(-c3ccc4c(c3)NC(=O)CO4)s2)c1=O` [Example 90, 6-[5-(1-[(2E)-2-(aminomethyl)-3-fluoroprop-2-en-1-yl]-5-oxo-1,5-dihydro-4H-1,2,4-triazol-4-ylmethyl)thiophen-2-yl]-2H-1,4-benzoxazin-3(4H)-one hydrochloride], the IC50 was determined as 660 nM in experiment [1], 230 nM in experiment [2], 24000 nM in experiment [3] and 0.4 nM in experiment [4].
The corresponding values for `NC/C(=C\F)Cn1ncn(Cc2ccc(-c3cccc(S(=O)(=O)N4CCCC4)c3)s2)c1=O` [Example 28, 2-[(2E)-2-(aminomethyl)-3-fluoroprop-2-en-1-yl]-4-(5-[3-(pyrrolidin-1-ylsulfonyl)phenyl]thiophen-2-ylmethyl)-2,4-dihydro-3H-1,2,4-triazol-3-one hydrochloride] are 200 nM, 120 nM, above 100000 nM and 0.5 nM.
Turning to `CC(C)Oc1ccc(-c2ccc(Cn3cnn(C/C(=C/F)CN)c3=O)s2)cn1` [Example 185, 2-[(2E)-2-(aminomethyl)-3-fluoroprop-2-en-1-yl]-4-({5-[6-(propan-2-yloxy)pyridin-3-yl]thiophen-2-yl}methyl)-2,4-dihydro-3H-1,2,4-triazol-3-one], the IC50 in experiment [1] is 310 nM; in experiment [2], 730 nM; in experiment [3], above 100000 nM; in experiment [4], 2.7 nM.
The corresponding values for `NC/C(=C/F)Cn1ncn(Cc2ccc(Br)s2)c1=O` [Example 1, 2-[(2Z)-2-(aminomethyl)-3-fluoroprop-2-en-1-yl]-4-[(5-bromothiophen-2-yl)methyl]-2,4-dihydro-3H-1,2,4-triazol-3-one] are 14 nM, 3020 nM, 18000 nM and 5.7 nM.
